Experimental data from PMC9056855 (RSC Advances, 2020).

Legend:
Assay type in all cases: biochemical
CYP2E1 = CYP2E1 (Homo sapiens, UniProt P05181); assay: probe substrate turnover, UHPLC
CYP2B6 [1] = biological target: T1, CYP2B6 (Homo sapiens, UniProt P20813); assay: probe substrate turnover, UHPLC
T1 sequence (P20813 1-491): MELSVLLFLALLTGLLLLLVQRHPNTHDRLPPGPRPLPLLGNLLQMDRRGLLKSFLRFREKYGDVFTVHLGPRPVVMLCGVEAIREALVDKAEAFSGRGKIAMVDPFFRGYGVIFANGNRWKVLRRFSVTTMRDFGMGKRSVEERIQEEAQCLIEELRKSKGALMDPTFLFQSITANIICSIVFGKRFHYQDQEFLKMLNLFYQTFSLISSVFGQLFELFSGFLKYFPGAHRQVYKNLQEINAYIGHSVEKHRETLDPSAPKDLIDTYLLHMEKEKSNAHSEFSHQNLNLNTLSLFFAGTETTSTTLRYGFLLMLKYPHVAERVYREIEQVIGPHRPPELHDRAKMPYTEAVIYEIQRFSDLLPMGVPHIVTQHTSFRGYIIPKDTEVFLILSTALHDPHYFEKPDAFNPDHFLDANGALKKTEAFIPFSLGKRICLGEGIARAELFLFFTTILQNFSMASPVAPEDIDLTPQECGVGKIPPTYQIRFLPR

CYP2C9 [2] = biological target: T2, CYP2C9 (Homo sapiens, UniProt P11712); assay: inhibition kinetics, nonlinear fit, Dixon plot, UHPLC
T2 sequence (P11712 whole entry): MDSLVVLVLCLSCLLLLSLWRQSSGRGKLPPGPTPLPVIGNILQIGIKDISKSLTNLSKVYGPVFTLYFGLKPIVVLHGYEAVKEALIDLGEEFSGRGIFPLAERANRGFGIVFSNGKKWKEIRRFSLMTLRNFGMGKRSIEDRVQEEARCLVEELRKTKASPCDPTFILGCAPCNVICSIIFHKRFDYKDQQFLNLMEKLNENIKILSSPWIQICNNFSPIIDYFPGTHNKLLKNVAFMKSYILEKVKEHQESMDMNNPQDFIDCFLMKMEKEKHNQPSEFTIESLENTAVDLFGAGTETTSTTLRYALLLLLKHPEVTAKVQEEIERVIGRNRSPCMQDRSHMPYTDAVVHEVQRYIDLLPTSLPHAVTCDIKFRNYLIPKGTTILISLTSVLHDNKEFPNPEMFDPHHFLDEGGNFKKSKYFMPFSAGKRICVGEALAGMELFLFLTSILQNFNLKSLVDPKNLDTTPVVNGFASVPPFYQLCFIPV

CYP2C8 = biological target: T3, CYP2C8 (Homo sapiens, UniProt P10632); assay: probe substrate turnover, UHPLC
T3 sequence (P10632 1-490): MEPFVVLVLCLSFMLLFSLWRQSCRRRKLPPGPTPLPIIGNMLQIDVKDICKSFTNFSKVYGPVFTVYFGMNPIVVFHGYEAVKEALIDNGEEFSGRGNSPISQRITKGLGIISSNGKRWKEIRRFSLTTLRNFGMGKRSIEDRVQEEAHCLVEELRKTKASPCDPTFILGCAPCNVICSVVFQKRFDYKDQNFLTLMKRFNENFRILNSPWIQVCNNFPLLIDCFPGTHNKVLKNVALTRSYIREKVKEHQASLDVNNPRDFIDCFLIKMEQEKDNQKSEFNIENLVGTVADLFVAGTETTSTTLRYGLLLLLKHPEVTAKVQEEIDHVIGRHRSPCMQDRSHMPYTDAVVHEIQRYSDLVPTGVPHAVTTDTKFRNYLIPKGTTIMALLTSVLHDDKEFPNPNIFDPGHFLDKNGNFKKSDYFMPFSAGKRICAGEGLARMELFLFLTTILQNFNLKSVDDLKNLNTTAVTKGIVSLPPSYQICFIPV

UGT2B7 [3] = biological target: T4, UGT2B7 (Homo sapiens, UniProt P16662); assay: probe substrate turnover, UHPLC
T4 sequence (P16662 24-529): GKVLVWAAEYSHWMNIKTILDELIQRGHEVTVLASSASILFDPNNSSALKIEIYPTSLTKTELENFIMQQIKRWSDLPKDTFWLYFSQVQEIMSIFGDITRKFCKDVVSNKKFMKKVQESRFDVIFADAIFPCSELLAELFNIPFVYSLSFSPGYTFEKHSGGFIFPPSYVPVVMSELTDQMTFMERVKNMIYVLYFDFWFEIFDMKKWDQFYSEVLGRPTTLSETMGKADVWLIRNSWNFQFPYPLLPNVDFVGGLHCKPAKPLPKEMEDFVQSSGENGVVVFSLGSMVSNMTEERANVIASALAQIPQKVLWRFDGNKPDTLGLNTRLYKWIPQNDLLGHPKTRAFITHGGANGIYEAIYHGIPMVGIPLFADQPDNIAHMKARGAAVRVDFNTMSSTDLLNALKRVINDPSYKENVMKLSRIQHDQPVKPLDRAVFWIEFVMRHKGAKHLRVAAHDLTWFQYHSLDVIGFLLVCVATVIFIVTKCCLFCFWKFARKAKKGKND

CYP3A4 = CYP3A4 (Homo sapiens, UniProt P08684); assay: probe substrate turnover, UHPLC
Sequence of CYP3A4 (P08684 2-503): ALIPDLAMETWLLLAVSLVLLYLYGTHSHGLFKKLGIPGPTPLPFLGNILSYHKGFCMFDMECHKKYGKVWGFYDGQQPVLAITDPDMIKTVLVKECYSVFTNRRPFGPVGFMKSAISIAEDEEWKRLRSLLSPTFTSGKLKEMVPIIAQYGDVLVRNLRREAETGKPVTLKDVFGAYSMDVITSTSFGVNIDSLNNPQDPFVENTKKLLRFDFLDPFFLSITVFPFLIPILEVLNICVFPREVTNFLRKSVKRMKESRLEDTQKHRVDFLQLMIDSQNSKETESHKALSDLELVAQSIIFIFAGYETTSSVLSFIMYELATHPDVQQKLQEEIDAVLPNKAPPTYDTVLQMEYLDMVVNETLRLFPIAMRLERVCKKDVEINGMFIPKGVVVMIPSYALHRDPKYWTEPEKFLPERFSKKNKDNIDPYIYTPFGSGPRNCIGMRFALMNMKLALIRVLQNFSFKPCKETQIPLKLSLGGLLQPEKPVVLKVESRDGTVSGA

CYP2C19 [4] = biological target: T5, CYP2C19 (Homo sapiens, UniProt P33261); assay: inhibition kinetics, nonlinear fit, Dixon plot, UHPLC
T5 sequence (P33261 whole entry): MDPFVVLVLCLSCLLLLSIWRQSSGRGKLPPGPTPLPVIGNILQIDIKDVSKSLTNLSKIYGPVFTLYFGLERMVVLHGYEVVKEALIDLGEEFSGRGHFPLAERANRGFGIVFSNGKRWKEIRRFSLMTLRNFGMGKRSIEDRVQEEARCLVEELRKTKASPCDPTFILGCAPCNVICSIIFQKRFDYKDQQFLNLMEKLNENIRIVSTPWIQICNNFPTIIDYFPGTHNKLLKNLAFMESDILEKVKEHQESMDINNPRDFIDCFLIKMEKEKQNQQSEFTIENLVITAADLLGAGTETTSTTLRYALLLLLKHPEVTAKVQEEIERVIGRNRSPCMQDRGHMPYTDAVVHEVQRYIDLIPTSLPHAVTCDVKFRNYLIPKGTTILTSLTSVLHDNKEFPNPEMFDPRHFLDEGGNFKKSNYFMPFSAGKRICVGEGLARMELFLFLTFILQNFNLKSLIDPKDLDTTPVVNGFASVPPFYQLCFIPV

CYP2C9 [5] = biological target: T2, CYP2C9; assay: probe substrate turnover, UHPLC
UGT1A9 [6] = biological target: T6, UGT1A9 (Homo sapiens, UniProt O60656); assay: probe substrate turnover, UHPLC
T6 sequence (O60656 26-530): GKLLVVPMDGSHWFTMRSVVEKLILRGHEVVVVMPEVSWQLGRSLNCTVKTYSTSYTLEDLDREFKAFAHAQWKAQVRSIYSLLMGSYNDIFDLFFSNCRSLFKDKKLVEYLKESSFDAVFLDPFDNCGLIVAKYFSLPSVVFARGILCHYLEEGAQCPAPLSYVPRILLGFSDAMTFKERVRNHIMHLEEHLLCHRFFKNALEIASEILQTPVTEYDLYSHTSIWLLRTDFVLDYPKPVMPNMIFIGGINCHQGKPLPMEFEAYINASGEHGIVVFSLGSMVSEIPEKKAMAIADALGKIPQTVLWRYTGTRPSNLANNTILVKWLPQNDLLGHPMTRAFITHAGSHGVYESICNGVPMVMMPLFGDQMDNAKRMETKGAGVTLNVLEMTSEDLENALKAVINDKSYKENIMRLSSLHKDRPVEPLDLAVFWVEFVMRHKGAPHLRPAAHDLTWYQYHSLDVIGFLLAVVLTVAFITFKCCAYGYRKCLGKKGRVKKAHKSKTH

CYP2C19 [7] = biological target: T5, CYP2C19; assay: probe substrate turnover, UHPLC
UGT1A1 = biological target: T7, UGT1A1 (Homo sapiens, UniProt P22309); assay: probe substrate turnover, UHPLC
T7 sequence (P22309 26-533): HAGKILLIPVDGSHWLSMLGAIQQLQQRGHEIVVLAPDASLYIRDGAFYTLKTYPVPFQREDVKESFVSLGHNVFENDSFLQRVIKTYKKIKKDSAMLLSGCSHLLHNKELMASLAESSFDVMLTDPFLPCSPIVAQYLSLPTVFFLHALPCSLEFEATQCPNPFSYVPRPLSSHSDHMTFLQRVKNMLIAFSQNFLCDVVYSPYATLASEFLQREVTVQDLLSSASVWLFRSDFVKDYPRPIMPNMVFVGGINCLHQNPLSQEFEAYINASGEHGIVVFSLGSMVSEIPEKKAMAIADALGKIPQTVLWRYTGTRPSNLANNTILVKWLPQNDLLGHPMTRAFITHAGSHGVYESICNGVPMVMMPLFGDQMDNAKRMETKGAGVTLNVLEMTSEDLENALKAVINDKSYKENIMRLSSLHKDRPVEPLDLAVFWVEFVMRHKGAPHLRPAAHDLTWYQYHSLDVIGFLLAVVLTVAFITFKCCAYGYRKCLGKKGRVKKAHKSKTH

CYP1A2 = biological target: T8, CYP1A2 (Homo sapiens, UniProt P05177); assay: probe substrate turnover, UHPLC
T8 sequence (P05177 2-516): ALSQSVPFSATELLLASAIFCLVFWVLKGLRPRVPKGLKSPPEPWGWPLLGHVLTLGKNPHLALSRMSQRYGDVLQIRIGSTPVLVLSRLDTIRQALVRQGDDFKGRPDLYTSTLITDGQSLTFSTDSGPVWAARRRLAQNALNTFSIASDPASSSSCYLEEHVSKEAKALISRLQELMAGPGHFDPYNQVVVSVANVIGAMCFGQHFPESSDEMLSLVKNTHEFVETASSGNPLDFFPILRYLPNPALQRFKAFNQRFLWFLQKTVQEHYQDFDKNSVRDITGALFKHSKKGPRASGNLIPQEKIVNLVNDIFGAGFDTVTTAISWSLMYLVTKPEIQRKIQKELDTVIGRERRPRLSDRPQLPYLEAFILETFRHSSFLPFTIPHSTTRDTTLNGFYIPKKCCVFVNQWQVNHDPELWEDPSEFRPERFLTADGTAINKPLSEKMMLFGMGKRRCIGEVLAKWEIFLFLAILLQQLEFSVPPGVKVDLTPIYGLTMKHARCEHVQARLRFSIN

UGT1A9 [8] = biological target: T6, UGT1A9; assay: inhibition kinetics, nonlinear fit, Dixon plot, UHPLC
UGT2B7 [9] = biological target: T4, UGT2B7; assay: as above
CYP2B6 [10] = biological target: T1, CYP2B6; assay: as above

Sequence of CYP2E1 (P05181 whole entry): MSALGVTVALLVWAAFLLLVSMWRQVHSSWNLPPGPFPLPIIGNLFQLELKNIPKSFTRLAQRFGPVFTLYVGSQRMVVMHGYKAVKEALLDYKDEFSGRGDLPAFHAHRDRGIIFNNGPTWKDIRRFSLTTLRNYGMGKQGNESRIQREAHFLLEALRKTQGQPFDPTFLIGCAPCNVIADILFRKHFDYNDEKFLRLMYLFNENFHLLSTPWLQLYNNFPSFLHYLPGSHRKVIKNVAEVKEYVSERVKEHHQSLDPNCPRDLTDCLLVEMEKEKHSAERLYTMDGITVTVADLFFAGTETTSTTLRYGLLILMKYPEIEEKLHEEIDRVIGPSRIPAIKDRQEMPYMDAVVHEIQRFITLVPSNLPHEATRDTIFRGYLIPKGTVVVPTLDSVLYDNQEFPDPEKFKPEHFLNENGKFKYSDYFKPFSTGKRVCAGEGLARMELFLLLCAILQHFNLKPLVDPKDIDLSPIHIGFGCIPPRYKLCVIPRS

COc1cc2c(cc1CC=C(C)C)C(=O)C[C@@H](c1ccc(O)cc1)O2 [bavachinin]
% residual activity at 100 μM (CYP2E1): 51.5% | IC50 (CYP2B6 [1]): 1.68 ± 0.63 µM | Ki (CYP2C9 [2]): 0.19 ± 0.03 µM | % residual activity at 100 μM (CYP2C8): 21.5% | IC50 (UGT2B7 [3]): 2.53 ± 0.62 µM | % residual activity at 100 μM (CYP3A4): 24.7% | Ki (CYP2C19 [4]): 1.86 ± 0.16 µM | IC50 (CYP2C9 [5]): 0.28 ± 0.07 µM | IC50 (UGT1A9 [6]): 2.34 ± 0.61 µM | IC50 (CYP2C19 [7]): 1.38 ± 0.53 µM | IC50 (UGT1A1): 20.7 ± 10.6 µM | % residual activity at 100 μM (CYP1A2): 91.5% | Ki (UGT1A9 [8]): 0.37 ± 0.04 µM | Ki (UGT2B7 [9]): 1.13 ± 0.12 µM | Ki (CYP2B6 [10]): 1.51 ± 0.12 µM
